System: CYP1B1
Test: Cell-based CYP1B1 enzyme activity assay (Luciferin-CEE luminescence, normalized to genomic DNA) in 10F-HDF spheroid-scaffold culture
Conditions: addition to the spheroid-scaffold culture of 10F-HDFs (GCH tri-copolymer scaffold); FIG. 5B

induction of CYP1B1 activities: did not induce
SMILES: COc1ccc2[nH]c([S+]([O-])Cc3ncc(C)c(OC)c3C)nc2c1 (stereo not shown) [omeprazole]
